The values that follow come from PMC10779871, “Anti-Trypanosomal Bufadienolides from the Oocytes of the Toad Rhinella alata (Anura, Bufonidae)” (Molecules, 2023).

The test system of one series is T. cruzi trypomastigotes. In words: Anti-trypanosomal bioassay, T. cruzi Tulahuen clone C4 expressing β-galactosidase. As to conditions: for EC50: Trypanosoma cruzi, 120 h, read-out: T. cruzi EC50; for Inhibition of the growth of T. cruzi trypomastigotes (in words): four concentrations, screening concentration of 10 µg/mL. It counts as cell-based, Trypanosoma cruzi. The protocol:
Anti-trypanosomal bioassays were performed using the recombinant strain Tulahuen, clone C4, of T. cruzi in the form of trypomastigotes (ATCC, Manassas, VA, USA). This strain expresses the enzyme β-galactosidase. The parasites were incubated at 37 °C under an atmosphere of 5% CO2 in RPMI-1640 culture medium supplemented with L-glutamine,4-(2-hydroxyethyl)-piperazine-1-ethanesulfonic acid (HEPES) buffer, NaHCO3, 10% FBS and 0.05% gentamicin (50 mg/mL). Epithelial kidney monkey Vero cells (ATCC, Manassas, VA, USA) were incubated for 24 h and then infected with the parasites 24 h prior to the addition of the compounds. After additional 24 h of infection, the compounds (1–7) were dissolved in DMSO and tested at 10, 2, 0.4 and 0.08 µg/mL for five days. The drug benznidazole was used as a positive control. Chlorophenol-red-β-D-galactopyranoside (Roche Applied Science) was added to each well and then allowed to react with the β-galactosidase of the rest of the living parasites for 4.5 h to quantify the biological activity. Absorbance was measured at 570 nm using a plate reader (Sinergy HT, BioTek Instruments Inc., Winooski, VT, USA).
(§1) All bioassays represent independent analysis and were carried out in duplicate. The data analysis complement Wizard of Excel 2000 (Microsoft, Seattle, WA, USA) was used for the statistical analysis of the 50% inhibiting (IC50) and cytotoxic (CC50) concentration values by adjusting the dose-response curve to a sigmoidal model.

Series [1] in a line: Cytotoxicity assay (MTT) on Vero cells. It counts as cell-based. The settings on record: monkey, five days, read-out: VERO CELL CC50. The protocol:
Epithelial kidney monkey Vero cells were incubated at 37 °C in 96-well plates under an atmosphere of 5% CO2, using RPMI-1640 medium (Sigma-Aldrich, St. Louis, MO, USA) supplemented with 0.05% gentamicin (50 mg/mL) and 10% FBS (fetal bovine serum; Gibco, Invitrogen, Carlsbad, CA, USA). Cells were allowed to adhere for one day before incubation for five days with the compounds. Doxorubicin and DMSO were used as positive and negative controls, respectively. When the incubation period ended, 3-(4, 5-di-methyl-thiazol-2-yl)-2, 5-di-phenyl-tetra-zolium bromide (MTT) was added to the wells, and after 4 h, absorbance was measured at 570 nm using a color plate reader. Cytotoxicity was assessed colorimetrically by calculating the capacity of the remaining Vero cells to reduce the yellow MTT into the dark purple formazan product, as reported.
as §1

The conditions of series [2]: cited from earlier work.
Series [3] relates to T. cruzi. The settings on record: previous study; cited from earlier work.
The test system of a further series is mouse macrophages. As to conditions: cited from earlier work.
A further series deals with erythrocytes. As to conditions: cited from earlier work.
In a further series the test system is (Na+)ATPase. The settings on record: cited from earlier work.
In series [4] the test system is Batrachochytrium dendrobatidis. As to conditions: cited from earlier work.
Series [5] concerns T. cruzi. More on the design: method as in PMID 32061723. The settings on record: read-out: IC50 anti-trypanosomal activity; cited from earlier work.
Another series deals with Vero cells. More on the design: method as in PMID 32061723. The settings on record: in comparison with bufadienolide 7; cited from earlier work.
The mark [6] stands for this setting: trypomastigote form, Tulahuen clone C4, five days, tested at 10, 2, 0.4 and 0.08 µg/mL.
[7] abbreviates: monkey (Vero host cells), Trypanosoma cruzi (parasite), read-out: Selectivity (CC50/EC50).

Read-outs that look alike come from different tables or passages of the source.

`CC12CCC3C(CCC4(O)CC(O)CCC34C=O)C1(O)CC(O)C2c1ccc(=O)oc1` (stereo not drawn) [Compound 1, 16β-hydroxyl-hellebrigenin]: the 50% effective concentration (EC50) with T. cruzi trypomastigotes (setting [6]) turned out to be 22.8 ± 4.11 µM. Besides, in the series with T. cruzi trypomastigotes, the “Inhibition of the growth of T. cruzi trypomastigotes (in words)” value (“Inhibition of the growth … (in words)” for short) is “reduce the growth”. Besides, the selectivity ratio in the series on T. cruzi trypomastigotes (setting [7]) is > 5. Besides, in series [1], the CC50 was > 135000 nM.

With `Clc1ccc(C2CC3CCC2N3)cn1` (stereo not drawn) [epibatidine], in series [2], the “Analgesic potency relative to morphine” value is 200 times more potent than morphine.

For `O=C(Cn1ccnc1[N+](=O)[O-])NCc1ccccc1` [Benznidazole, reference compound], the EC50 in the series on T. cruzi trypomastigotes (setting [6]) turned out to be 2.73 ± 0.1 µM. Also, in the series on T. cruzi trypomastigotes (setting [7]), the selectivity ratio was 18.8. Besides, the CC50 in series [1] came to 51400 ± 6000 nM.

In the case of `C[C@]12CC[C@H]3[C@@H](CC[C@]4(O)C[C@@H](O)CC[C@]34C=O)[C@@]1(O)CC[C@@H]2c1ccc(=O)oc1` [hellebrigenin], in the series with T. cruzi [3], the Trypanocidal activity is 91.7 µg/mL. For the same compound, the “Cytotoxicity on mouse macrophages (in words)” value in the series on mouse macrophages is listed as “no toxic effects”. In addition, the “Cytotoxicity on erythrocytes (in words)” value in the series with erythrocytes is “no toxic effects”.

In the case of `CCC(=O)OC1C(c2ccc(=O)oc2)C2(C)CCC3C(CCC4(O)CC(O)CCC34C=O)C23OC13` (stereo not drawn) [Compound 3, 19-formyl-dyscinobufotalin], the EC50 in the series with T. cruzi trypomastigotes (setting [6]) was 0.19 ± 0.07 µM. Further, the “Inhibition of the growth … (in words)” value in the series on T. cruzi trypomastigotes was “reduce the growth”. In addition, the selectivity ratio with T. cruzi trypomastigotes (setting [7]) stood at 1.16. Also, the CC50 in [1] turned out to be 220 ± 90 nM.

As to `C[C@@H]1O[C@@H](O[C@H]2C[C@@H](O)[C@]3(CO)[C@H]4[C@H](O)C[C@]5(C)[C@@H](C6=CC(=O)OC6)CC[C@]5(O)[C@@H]4CC[C@]3(O)C2)[C@H](O)[C@H](O)[C@H]1O` [ouabain], the “Inhibition of enzymatic activity of (Na+)ATPase (in words)” value with (Na+)ATPase is “not inhibited”.

Regarding `C[C@]12CC[C@H](O)C[C@H]1CC[C@@H]1[C@@H]2CC[C@]2(C)[C@@H](c3ccc(=O)oc3)CC[C@]12O` [Compound 7, bufalin], in the series with T. cruzi trypomastigotes (TULAHUEN), the EC50 is 3.93 ± 0.57 µM. Besides, in the series with T. cruzi trypomastigotes (cytotoxicity on Vero cells/anti-trypanosomal activity ratio), the “Selectivity (CC50/EC50)” value was 2.69. Also, the “Inhibition of the growth … (in words)” value with T. cruzi trypomastigotes was “reduce the growth”. Besides, the selectivity ratio at 5 days with T. cruzi trypomastigotes (monkey (Vero host cells), Trypanosoma cruzi (parasite), cytotoxicity on Vero cells/anti-trypanosomal activity ratio, read-out: Selectivity (CC50/EC50)) worked out at 2.7. Also, the CC50 at 5 days in series [1] was 10.6 ± 1.54 µM.

In turn, `C[C@]12CC[C@H](O)C[C@H]1CC[C@@H]1[C@@H]2CC[C@]2(C)[C@@H](c3ccc(=O)oc3)[C@@H](O)C[C@]12O` [Compound 2, desacetyl-bufotalin] had a melting point of 71 °C. Also, the “T. cruzi EC50” value in the series on T. cruzi trypomastigotes (setting [6]) is on record as “Inactive”. Moreover, the CC50 in series [1] is > 28000 nM.

`C[C@]12CC[C@H](O)C[C@H]1CC[C@@H]1[C@@H]2[C@H](O)C[C@]2(C)[C@@H](c3ccc(=O)oc3)CC[C@]12O` [γ-bufotalin]: the “Inhibition of Batrachochytrium dendrobatidis in vitro (in words)” value (“Inhibition … in vitro (in words)” for short) in series [4] was “inhibit”.

Consider `C[C@]12CC[C@H](O)C[C@@]1(O)CC[C@@H]1[C@@H]2CC[C@]2(C)[C@@H](c3ccc(=O)oc3)CC[C@]12O` [telocinobufagin], for which the Trypanocidal activity result with T. cruzi [3] is “inactive”. Further, the “Inhibition … in vitro (in words)” value in series [4] is listed as “inhibit”. The “Cytotoxicity on mouse macrophages (in words)” value in the series on mouse macrophages is “no toxic effects”. Besides, the “Cytotoxicity on erythrocytes (in words)” value with erythrocytes is listed as “no toxic effects”.

Take `CC(=O)O[C@H]1[C@H]2O[C@]23[C@@H]2CC[C@]4(O)C[C@@H](O)CC[C@]4(C)[C@H]2CC[C@]3(C)[C@H]1c1ccc(=O)oc1` [Compound 5, cinobufotalin]: the concentration for a half-maximal effect (EC50) with T. cruzi trypomastigotes (setting [6]) was 27.8 ± 3.77 µM. Besides, the “Inhibition of the growth … (in words)” value with T. cruzi trypomastigotes is recorded as “reduce the growth”. In addition, the selectivity ratio with T. cruzi trypomastigotes (setting [7]) worked out at 0.07. Moreover, in series [1], the CC50 stood at 1880 ± 200 nM.

For `CCC(=O)OC1C(c2ccc(=O)oc2)C2(C)CCC3C(CCC4(O)CC(O)CCC34C)C23OC13` (stereo not drawn) [Compound 6, dyscinobufotalin], in the series with T. cruzi trypomastigotes (setting [6]), the EC50 amounted to 12.3 ± 1.87 µM. In the series on T. cruzi trypomastigotes, the “Inhibition of the growth … (in words)” value is reported as “reduce the growth”. Besides, in the series with T. cruzi trypomastigotes (setting [7]), the selectivity ratio is < 0.01. Besides, the CC50 in series [1] was 20 ± 2 nM.

Regarding `CC(=O)O[C@H]1C[C@]2(O)[C@@H]3CC[C@@H]4C[C@@H](O)CC[C@]4(C)[C@H]3CC[C@]2(C)[C@H]1c1ccc(=O)oc1` [Compound 4, bufotalin], the EC50 in the series with T. cruzi trypomastigotes (setting [6]) was determined as 19.6 ± 2 µM. In the series with T. cruzi trypomastigotes, the “Inhibition of the growth … (in words)” value is reported as “reduce the growth”. Moreover, the selectivity ratio with T. cruzi trypomastigotes (setting [7]) was > 2. Also, the CC50 in series [1] was > 46000 nM.

For `COc1cccc2c1C(=O)c1c(O)c3c(c(O)c1C2=O)C[C@@](O)(C(=O)CO)C[C@@H]3O[C@H]1C[C@H](N)[C@H](O)[C@H](C)O1` [Doxorubicin, reference compound], the CC50 in series [1] is 230 nM.

For the compound `C[C@]12CC[C@H]3[C@@H](CC[C@@H]4C[C@@H](O)CC[C@@]43CO)[C@@]1(O)CC[C@@H]2c1ccc(=O)oc1` [19-hydroxy-bufalin], the IC50 in the series with T. cruzi [5] was 19.4 µM. Besides, the “Cytotoxicity against Vero cells (in words)” value with Vero cells is on record as “low cytotoxicity”.

Consider `C[C@]12CC[C@H](O)C[C@H]1CC[C@@H]1[C@@H]2[C@H](O)C(=O)[C@]2(C)[C@@H](c3ccc(=O)oc3)CC[C@]12O` [Arenobufagin], for which the “Inhibition … in vitro (in words)” value in [4] is recorded as “inhibit”.
